Data taken from patent US10798941B2, “Microbiocidal oxadiazole derivatives” (SYNGENTA PARTICIPATIONS AG, priority 2016, dated 2020).

These molecules were tested on Glomerella Lagenarium (Colletotrichum Lagenarium) (assay: Glomerella lagenarium (Colletotrichum lagenarium) liquid culture / cucumber / preventative (anthracnose)). Conditions: Colletotrichum orbiculare; 20 ppm in the applied formulation; liquid culture in PDB, 24° C., inhibition of growth measured photometrically 3 to 4 days after application, vs untreated; read-out: disease control.
Type: cell-based
Procedure: Mycelia fragments or conidia suspensions of a fungus prepared either freshly from liquid cultures of the fungus or from cryogenic storage, are directly mixed into nutrient broth. DMSO solutions of the test compound (max. 10 mg/ml) are diluted with 0.025% Tween20 by a factor of 50 and 10 μl of this solution is pipetted into a microtiter plate (96-well format). The nutrient broth containing the fungal spores/mycelia fragments is then added to give an end concentration of the tested compound. The test plates are incubated in the dark at 24° C. and 96% relative humidity. The inhibition of fungal growth is determined photometrically after 2 to 7 days, depending on the pathosystem, and percent antifungal activity relative to the untreated check is calculated.
Conidia of the fungus from cryogenic storage are directly mixed into nutrient broth (PDB—potato dextrose broth). After placing a (DMSO) solution of test compound into a microtiter plate (96-well format), the nutrient broth containing the fungal spores is added.
The following compounds at 20 ppm in the applied formulation give at least 80% disease control in this test when compared to untreated control under the same conditions, which show extensive disease development.
Work on `Cc1c(C=O)c2ccccc2n1Cc1ccc(-c2noc(C(F)(F)F)n2)cc1` [Compound 1.70, 2-methyl-1-[[4-[5-(trifluoromethyl)-1,2,4-oxadiazol-3-yl]phenyl]methyl]indole-3-carbaldehyde] yielded an inhibition of growth at 20 ppm of at least 80%.
Work on `FC(F)(F)c1nc(-c2ccc(Cn3cc(Cl)cn3)c(Cl)c2)no1` [Compound 1.111, 3-[3-chloro-4-[(4-chloropyrazol-1-yl)methyl]phenyl]-5-(trifluoromethyl)-1,2,4-oxadiazole] yielded an inhibition of growth at 20 ppm of at least 80%.
For `Fc1cc(-c2noc(C(F)(F)F)n2)ccc1Cn1nnnc1-c1ccc(Cl)cc1` [Compound 1.130, 3-[4-[[5-(4-chlorophenyl)tetrazol-1-yl)methyl]-3-fluoro-phenyl]-5-(trifluoromethyl)-1,2,4-oxadiazole], the inhibition of growth at 20 ppm was at least 80%.
Work on `COc1cc(-c2noc(C(F)(F)F)n2)ccc1Cn1cncc1Br` [Compound 1.116, 3-[4-[(5-bromoimidazol-1-yl)methyl]-3-methoxy-phenyl]-5-(trifluoromethyl)-1,2,4-oxadiazole] yielded an inhibition of growth at 20 ppm of at least 80%.
For `COc1cc(-c2noc(C(F)(F)F)n2)ccc1Cn1cnc(Br)c1` [Compound 1.117, 3-[4-[(4-bromoimidazol-1-yl)methyl]-3-methoxy-phenyl]-5-(trifluoromethyl)-1,2,4-oxadiazole], the inhibition of growth at 20 ppm was at least 80%.
`FC(F)(F)c1nc(-c2ccc(Cn3nnnc3-c3ccc(Cl)cc3)c(Cl)c2)no1` [Compound 1.113, 3-[3-chloro-4-[[5-(4-chlorophenyl)tetrazol-1-yl]methyl]phenyl]-5-(trifluoromethyl)-1,2,4-oxadiazole] was tested, and the inhibition of growth at 20 ppm was at least 80%.
`COC(=O)c1cc(C(F)(F)F)n(Cc2ccc(-c3noc(C(F)(F)F)n3)cc2)c1C` [Compound 1.68, methyl 2-methyl-5-(trifluoromethyl)-1-[[4-[5-(trifluoromethyl)-1,2,4-oxadiazol-3-yl]phenyl]methyl]pyrrole-3-carboxylate] was tested, and the inhibition of growth at 20 ppm was at least 80%.
For `COC(=O)c1ncn(Cc2ccc(-c3noc(C(F)(F)F)n3)cc2Cl)c1C(=O)OC` [Compound 1.104, dimethyl 1-[[2-chloro-4-[5-(trifluoromethyl)-1,2,4-oxadiazol-3-yl]phenyl]methyl]imidazole-4,5-dicarboxylate], the inhibition of growth at 20 ppm was at least 80%.
For `COC(=O)c1ncn(Cc2ccc(-c3noc(C(F)(F)F)n3)cn2)n1` [Compound 1.138, methyl 1-[[5-[5-(trifluoromethyl)-1,2,4-oxadiazol-3-yl]-2-pyridyl]methyl]-1,2,4-triazole-3-carboxylate], the inhibition of growth at 20 ppm was at least 80%.
In the case of `Fc1cc2ncn(Cc3ccc(-c4noc(C(F)(F)F)n4)cc3)c2cc1Cl` [Compound 1.92, 3-[4-[(6-chloro-5-fluoro-benzimidazol-1-yl)methyl]phenyl]-5-(trifluoromethyl)-1,2,4-oxadiazole], the inhibition of growth at 20 ppm was at least 80%.
`Cc1nc2cc(C(F)(F)F)ccc2n1Cc1ccc(-c2noc(C(F)(F)F)n2)cc1` [Compound 1.191, 3-[4-[[2-methyl-5-(trifluoromethyl)benzimidazol-1-yl]methyl]phenyl]-5-(trifluoromethyl)-1,2,4-oxadiazole] was tested, and the inhibition of growth at 20 ppm was at least 80%.
With `Cc1cc(C)n(Cc2ccc(-c3noc(C(F)(F)F)n3)cc2Cl)n1` [Compound 1.100, 3-[3-chloro-4-[(3,5-dimethylpyrazol-1-yl)methyl]phenyl]-5-(trifluoromethyl)-1,2,4-oxadiazole] the inhibition of growth at 20 ppm was at least 80%.
`CCOC(=O)c1nn(Cc2ccc(-c3noc(C(F)(F)F)n3)cc2)cc1-c1ccccc1` [Compound 1.84, ethyl 4-phenyl-1-[[4-[5-(trifluoromethyl) 1,2,4-oxadiazol-3-yl]phenyl]methyl]pyrazole-3-carboxylate] showed an inhibition of growth at 20 ppm of at least 80%.
In the case of `FC(F)(F)c1nc(-c2ccc(Cn3cc(I)cn3)c(Cl)c2)no1` [Compound 1.114, 3-[3-chloro-4-[(4-iodopyrazol-1-yl)methyl]phenyl]-5-(trifluoromethyl)-1,2,4-oxadiazole], the inhibition of growth at 20 ppm was at least 80%.
Molecule `FC(F)(F)c1nc(-c2ccc(Cn3cc(Br)cn3)c(Cl)c2)no1` [Compound 1.115, 3-[4-[(4-bromopyrazol-1-yl)methyl]-3-chloro-phenyl]-5-(trifluoromethyl)-1,2,4-oxadiazole] has an inhibition of growth at 20 ppm of at least 80%.
`N#Cc1ncn(Cc2ccc(-c3noc(C(F)(F)F)n3)cc2Cl)c1C#N` [Compound 1.106, 1-[[2-chloro-4-[5-(trifluoromethyl)-1,2,4-oxadiazol-3-yl]phenyl]methyl]imidazole-4,5-dicarbonitrile] showed an inhibition of growth at 20 ppm of at least 80%.
`C[C@@H]1CN(Cc2ccc(-c3noc(C(F)(F)F)n3)cc2)C[C@H](C)O1` [Compound 1.307, (2R,6S)-2,6-dimethyl-4-[[4-[5-(trifluoromethyl)-1,2,4-oxadiazol-3-yl]phenyl]methyl]morpholine] showed an inhibition of growth at 20 ppm of at least 80%.
`COC(=O)c1cccc2c1ccn2Cc1ccc(-c2noc(C(F)(F)F)n2)cc1` [Compound 1.66, methyl 1-[[4-[5-(trifluoromethyl)-1,2,4-oxadiazol-3-yl]phenyl]methyl]indole-4-carboxylate] gave an inhibition of growth at 20 ppm of at least 80%.
`FC(F)(F)c1nc(-c2ccc(Cn3cnc4ccccc43)c(Cl)c2)no1` [Compound 1.110, 3-[4-(benzimidazol-1-ylmethyl)-3-chloro-phenyl]-5-(trifluoromethyl)-1,2,4-oxadiazole] was tested, and the inhibition of growth at 20 ppm was at least 80%.
In the case of `FC(F)(F)c1nc(-c2ccc(Cn3ccc4ccc(Cl)cc43)cc2)no1` [Compound 1.64, 3-[4-[(6-chloroindol-1-yl)methyl]phenyl]-5-(trifluoromethyl)-1,2,4-oxadiazole], the inhibition of growth at 20 ppm was at least 80%.
`Cc1nn(Cc2ccc(-c3noc(C(F)(F)F)n3)cc2F)c(C)c1Cl` [Compound 1.127, 3-[4-[(4-chloro-3,5-dimethyl-pyrazol-1-yl)methyl]-3-fluoro-phenyl]-5-(trifluoromethyl)-1,2,4-oxadiazole] was tested, and the inhibition of growth at 20 ppm was at least 80%.
With `Cc1cc(C)n(CCc2ccc(-c3noc(C(F)(F)F)n3)cc2)n1` [Compound 1.309, 3-[4-[2-(3,5-dimethylpyrazol-1-yl)ethyl]phenyl]-5-(trifluoromethyl)-1,2,4-oxadiazole] the inhibition of growth at 20 ppm was at least 80%.
`FC(F)(F)c1nc(-c2ccc(Cn3cnc(Br)c3)c(C(F)(F)F)c2)no1` [Compound 1.103, 3-[4-[(4-bromoimidazol-1-yl)methyl]-3-(trifluoromethyl)phenyl]-5-(trifluoromethyl)-1,2,4-oxadiazole] was tested, and the inhibition of growth at 20 ppm was at least 80%.
`FC(F)(F)c1nc(-c2ccc(Cn3c(Br)nc(Br)c3Br)cc2)no1` [Compound 1.69, 3-[4-[(2,4,5-tribromoimidazol-1-yl)methyl]phenyl]-5-(trifluoromethyl)-1,2,4-oxadiazole] showed an inhibition of growth at 20 ppm of at least 80%.
With `CCOC(=O)c1ncn(Cc2ccc(-c3noc(C(F)(F)F)n3)cc2)c1-c1ccccc1` [Compound 1.188, ethyl 5-phenyl-1-[[4-[5-(trifluoromethyl)-1,2,4-oxadiazol-3-yl]phenyl]methyl]imidazole-4-carboxylate] the inhibition of growth at 20 ppm was at least 80%.
`FC(F)(F)c1nc(-c2ccc(Cn3cncn3)c(C(F)(F)F)c2)no1` [Compound 1.98, 3-[4-(1,2,4-triazol-1-ylmethyl)-3-(trifluoromethyl)phenyl]-5-(trifluoromethyl)-1,2,4-oxadiazole] gave an inhibition of growth at 20 ppm of at least 80%.
